Source: the kinase profiling compilation of Christmann-Franck et al. (2016)

Tests used:
PRKD1 (human) = PRKD1 (human) (UniProt Q15139); assay: KINOMEscan competition binding
PLK3 (human) = PLK3 (human) (UniProt Q9H4B4); assay: KINOMEscan competition binding
MAP2K3 (human) = MAP2K3 (human) (UniProt P46734); assay: KINOMEscan competition binding
NUAK1 (human) [1] = biological target: NUAK1 (human) (UniProt O60285); assay: KINOMEscan competition binding
MINK1 (human) = MINK1 (human) (UniProt Q8N4C8); assay: KINOMEscan competition binding
FGR (human) = FGR (human) (UniProt P09769); assay: KINOMEscan competition binding
FGR (human), sequence (P09769 whole entry, looked up): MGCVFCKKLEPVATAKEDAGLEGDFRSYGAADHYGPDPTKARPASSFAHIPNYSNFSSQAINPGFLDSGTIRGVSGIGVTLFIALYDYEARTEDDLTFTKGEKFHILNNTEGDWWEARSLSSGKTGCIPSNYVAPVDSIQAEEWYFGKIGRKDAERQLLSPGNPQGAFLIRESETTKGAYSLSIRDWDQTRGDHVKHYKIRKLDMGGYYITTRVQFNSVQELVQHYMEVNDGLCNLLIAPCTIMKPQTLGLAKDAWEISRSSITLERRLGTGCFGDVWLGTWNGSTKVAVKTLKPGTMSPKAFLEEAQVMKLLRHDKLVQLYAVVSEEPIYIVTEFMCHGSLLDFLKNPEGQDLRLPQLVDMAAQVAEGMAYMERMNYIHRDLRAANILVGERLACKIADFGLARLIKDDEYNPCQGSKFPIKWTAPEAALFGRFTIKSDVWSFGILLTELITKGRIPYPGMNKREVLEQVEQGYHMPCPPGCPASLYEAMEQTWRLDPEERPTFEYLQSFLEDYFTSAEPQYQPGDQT

GRK1 (human) = GRK1 (human) (UniProt Q15835); assay: KINOMEscan competition binding
GRK1 (human), sequence (Q15835 whole entry, looked up): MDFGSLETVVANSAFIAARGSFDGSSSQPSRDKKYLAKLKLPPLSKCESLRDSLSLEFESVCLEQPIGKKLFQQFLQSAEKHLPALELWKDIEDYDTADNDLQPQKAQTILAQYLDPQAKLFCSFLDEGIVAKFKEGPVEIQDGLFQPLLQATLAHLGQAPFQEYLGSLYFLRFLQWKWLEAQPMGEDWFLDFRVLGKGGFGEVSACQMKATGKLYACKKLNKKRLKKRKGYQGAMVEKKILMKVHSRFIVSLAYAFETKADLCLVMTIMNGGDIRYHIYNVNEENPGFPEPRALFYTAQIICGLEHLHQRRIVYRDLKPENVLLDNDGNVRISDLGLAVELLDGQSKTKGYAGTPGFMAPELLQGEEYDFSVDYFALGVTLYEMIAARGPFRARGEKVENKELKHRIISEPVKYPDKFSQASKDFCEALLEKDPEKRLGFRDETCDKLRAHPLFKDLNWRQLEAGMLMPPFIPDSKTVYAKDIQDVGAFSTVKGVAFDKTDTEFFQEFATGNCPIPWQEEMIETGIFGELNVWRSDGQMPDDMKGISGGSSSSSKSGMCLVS

PIK3CA (human) = PIK3CA (human) (UniProt P42336); assay: KINOMEscan competition binding
PIK3CA (human), sequence (P42336 whole entry, looked up): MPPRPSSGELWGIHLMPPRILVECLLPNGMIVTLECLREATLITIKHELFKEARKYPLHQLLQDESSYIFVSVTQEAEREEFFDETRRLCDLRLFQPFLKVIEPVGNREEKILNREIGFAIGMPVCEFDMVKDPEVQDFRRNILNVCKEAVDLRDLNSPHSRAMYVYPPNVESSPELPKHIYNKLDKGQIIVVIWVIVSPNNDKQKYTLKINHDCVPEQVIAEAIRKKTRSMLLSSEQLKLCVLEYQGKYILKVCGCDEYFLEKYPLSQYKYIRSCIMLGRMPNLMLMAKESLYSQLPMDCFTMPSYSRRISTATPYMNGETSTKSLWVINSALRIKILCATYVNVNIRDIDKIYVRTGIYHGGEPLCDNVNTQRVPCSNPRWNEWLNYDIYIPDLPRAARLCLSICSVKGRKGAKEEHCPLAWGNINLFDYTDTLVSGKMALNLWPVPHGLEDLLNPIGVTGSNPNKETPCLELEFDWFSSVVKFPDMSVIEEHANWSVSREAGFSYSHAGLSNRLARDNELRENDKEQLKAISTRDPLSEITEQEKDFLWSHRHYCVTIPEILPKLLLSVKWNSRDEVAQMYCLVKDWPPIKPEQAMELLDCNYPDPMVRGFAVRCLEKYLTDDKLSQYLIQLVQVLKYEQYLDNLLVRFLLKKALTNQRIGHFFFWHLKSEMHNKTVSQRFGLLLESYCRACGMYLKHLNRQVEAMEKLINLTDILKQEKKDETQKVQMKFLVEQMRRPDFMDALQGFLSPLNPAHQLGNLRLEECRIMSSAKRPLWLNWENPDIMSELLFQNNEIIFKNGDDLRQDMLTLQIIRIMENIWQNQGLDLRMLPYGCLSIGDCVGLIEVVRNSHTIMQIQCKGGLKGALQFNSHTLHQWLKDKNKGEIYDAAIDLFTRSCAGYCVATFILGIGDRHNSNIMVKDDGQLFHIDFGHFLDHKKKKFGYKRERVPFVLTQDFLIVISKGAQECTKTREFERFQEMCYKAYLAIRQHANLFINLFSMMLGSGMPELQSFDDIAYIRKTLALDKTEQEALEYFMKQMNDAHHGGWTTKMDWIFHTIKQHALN

YES1 (human) = YES1 (human) (UniProt P07947); assay: radiometric filter-binding kinase assay
PRKX (human) = PRKX (human) (UniProt P51817)
PDGFRB (human) = PDGFRB (human) (UniProt P09619)
CSF1R (human) = CSF1R (human) (UniProt P07333)
MKNK2 (human) = MKNK2 (human) (UniProt Q9HBH9)
HIPK4 (human) = HIPK4 (human) (UniProt Q8NE63)
RIPK2 (human) = RIPK2 (human) (UniProt O43353); assay: radiometric filter-binding kinase assay
MAP3K9 (human) = MAP3K9 (human) (UniProt P80192); assay: radiometric filter-binding kinase assay
EPHB4 (human) = EPHB4 (human) (UniProt P54760); assay: radiometric filter-binding kinase assay
MAPK10 (human) = MAPK10 (human) (UniProt P53779); assay: radiometric filter-binding kinase assay
FLT1 (human) = FLT1 (human) (UniProt P17948); assay: radiometric filter-binding kinase assay
ERBB4 (human) = ERBB4 (human) (UniProt Q15303); assay: radiometric filter-binding kinase assay
EPHB2 (human) = EPHB2 (human) (UniProt P29323); assay: radiometric filter-binding kinase assay
MAPK9 (human) = MAPK9 (human) (UniProt P45984); assay: radiometric filter-binding kinase assay
CSNK1E (human) = CSNK1E (human) (UniProt P49674)
CSNK1G2 (human) = CSNK1G2 (human) (UniProt P78368)
DDR1 (human) = DDR1 (human) (UniProt Q08345)
[2] = biological target: AKT2 (human), P31751 [S474D]; assay: radiometric filter-binding kinase assay
CaMK1 (human) = CaMK1 (human) (UniProt Q14012); assay: radiometric filter-binding kinase assay
AKT1 (human) = AKT1 (human) (UniProt P31749)
AKT3 (human) = AKT3 (human) (UniProt Q9Y243)
SLK (human) = SLK (human) (UniProt Q9H2G2)
CSNK2A1 (human) = CSNK2A1 (human) (UniProt P68400); assay: radiometric filter-binding kinase assay
JAK2 JH1 JH2 (human) = JAK2 JH1 JH2 (human) (UniProt O60674); assay: radiometric filter-binding kinase assay
CLK2 (human) = CLK2 (human) (UniProt P49760); assay: radiometric filter-binding kinase assay
IRAK1 (human) [3] = biological target: IRAK1 (human) (UniProt P51617); assay: radiometric filter-binding kinase assay
MAPK15 (human) = MAPK15 (human) (UniProt Q8TD08); assay: radiometric filter-binding kinase assay
NUAK1 (human) [4] = biological target: NUAK1 (human) (UniProt O60285); assay: radiometric filter-binding kinase assay
HIPK1 (human) [5] = biological target: HIPK1 (human) (UniProt Q86Z02); assay: radiometric filter-binding kinase assay
GCK (human) = GCK (human) (UniProt Q12851); assay: radiometric filter-binding kinase assay
IRAK1 (human) [6] = biological target: IRAK1 (human) (UniProt P51617)
HIPK1 (human) [7] = biological target: HIPK1 (human) (UniProt Q86Z02)

PLK3 (human), sequence (Q9H4B4 whole entry, looked up): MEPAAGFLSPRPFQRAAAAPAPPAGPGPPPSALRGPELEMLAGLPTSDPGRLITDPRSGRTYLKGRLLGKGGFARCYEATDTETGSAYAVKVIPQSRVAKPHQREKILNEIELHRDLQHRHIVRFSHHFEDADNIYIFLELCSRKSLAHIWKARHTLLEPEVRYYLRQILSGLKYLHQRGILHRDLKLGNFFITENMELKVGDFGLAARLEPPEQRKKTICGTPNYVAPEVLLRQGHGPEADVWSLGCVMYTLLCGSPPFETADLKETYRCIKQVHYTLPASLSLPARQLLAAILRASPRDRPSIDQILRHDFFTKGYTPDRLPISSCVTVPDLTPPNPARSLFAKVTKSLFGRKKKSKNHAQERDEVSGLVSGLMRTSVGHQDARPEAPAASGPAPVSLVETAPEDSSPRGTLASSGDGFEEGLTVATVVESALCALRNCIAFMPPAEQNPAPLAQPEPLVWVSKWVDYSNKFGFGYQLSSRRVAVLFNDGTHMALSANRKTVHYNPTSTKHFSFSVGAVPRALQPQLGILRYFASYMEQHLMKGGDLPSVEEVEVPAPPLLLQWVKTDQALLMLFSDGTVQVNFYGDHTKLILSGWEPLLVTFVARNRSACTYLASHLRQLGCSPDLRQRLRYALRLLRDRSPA
MAP2K3 (human), sequence (P46734 whole entry, looked up): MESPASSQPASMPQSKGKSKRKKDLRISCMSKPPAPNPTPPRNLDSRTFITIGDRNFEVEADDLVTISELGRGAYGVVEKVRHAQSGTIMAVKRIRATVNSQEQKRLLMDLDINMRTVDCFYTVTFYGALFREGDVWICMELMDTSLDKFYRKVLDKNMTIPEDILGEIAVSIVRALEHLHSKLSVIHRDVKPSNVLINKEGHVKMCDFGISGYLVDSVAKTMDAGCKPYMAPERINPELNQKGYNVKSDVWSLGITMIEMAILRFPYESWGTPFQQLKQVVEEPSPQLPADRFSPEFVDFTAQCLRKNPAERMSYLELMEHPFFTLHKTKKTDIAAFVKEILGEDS
PRKD1 (human), sequence (Q15139 whole entry, looked up): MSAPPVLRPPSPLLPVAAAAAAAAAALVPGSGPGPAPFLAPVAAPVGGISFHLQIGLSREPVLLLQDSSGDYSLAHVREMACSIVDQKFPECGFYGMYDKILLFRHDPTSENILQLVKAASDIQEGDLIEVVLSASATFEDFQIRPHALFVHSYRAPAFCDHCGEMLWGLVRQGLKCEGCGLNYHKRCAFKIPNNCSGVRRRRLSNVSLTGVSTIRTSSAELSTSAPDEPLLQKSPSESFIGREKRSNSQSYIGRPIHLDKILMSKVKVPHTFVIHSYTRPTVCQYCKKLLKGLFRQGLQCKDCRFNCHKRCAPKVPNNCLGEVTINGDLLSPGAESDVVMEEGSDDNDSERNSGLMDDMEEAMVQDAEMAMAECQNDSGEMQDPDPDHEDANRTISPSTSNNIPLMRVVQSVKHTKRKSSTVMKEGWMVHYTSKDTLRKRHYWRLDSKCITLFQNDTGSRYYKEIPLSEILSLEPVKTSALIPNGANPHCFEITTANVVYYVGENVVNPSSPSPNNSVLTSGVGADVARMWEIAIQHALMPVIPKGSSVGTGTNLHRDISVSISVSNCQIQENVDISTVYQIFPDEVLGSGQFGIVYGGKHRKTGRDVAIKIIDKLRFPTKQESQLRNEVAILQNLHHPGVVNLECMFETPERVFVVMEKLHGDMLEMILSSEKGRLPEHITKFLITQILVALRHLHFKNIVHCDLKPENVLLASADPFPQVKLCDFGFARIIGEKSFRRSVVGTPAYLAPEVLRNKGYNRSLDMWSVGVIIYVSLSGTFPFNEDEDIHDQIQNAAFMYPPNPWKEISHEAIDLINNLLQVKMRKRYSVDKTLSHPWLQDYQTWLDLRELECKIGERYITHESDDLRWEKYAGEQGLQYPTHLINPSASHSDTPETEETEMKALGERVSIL
NUAK1 (human), sequence (O60285 whole entry, looked up): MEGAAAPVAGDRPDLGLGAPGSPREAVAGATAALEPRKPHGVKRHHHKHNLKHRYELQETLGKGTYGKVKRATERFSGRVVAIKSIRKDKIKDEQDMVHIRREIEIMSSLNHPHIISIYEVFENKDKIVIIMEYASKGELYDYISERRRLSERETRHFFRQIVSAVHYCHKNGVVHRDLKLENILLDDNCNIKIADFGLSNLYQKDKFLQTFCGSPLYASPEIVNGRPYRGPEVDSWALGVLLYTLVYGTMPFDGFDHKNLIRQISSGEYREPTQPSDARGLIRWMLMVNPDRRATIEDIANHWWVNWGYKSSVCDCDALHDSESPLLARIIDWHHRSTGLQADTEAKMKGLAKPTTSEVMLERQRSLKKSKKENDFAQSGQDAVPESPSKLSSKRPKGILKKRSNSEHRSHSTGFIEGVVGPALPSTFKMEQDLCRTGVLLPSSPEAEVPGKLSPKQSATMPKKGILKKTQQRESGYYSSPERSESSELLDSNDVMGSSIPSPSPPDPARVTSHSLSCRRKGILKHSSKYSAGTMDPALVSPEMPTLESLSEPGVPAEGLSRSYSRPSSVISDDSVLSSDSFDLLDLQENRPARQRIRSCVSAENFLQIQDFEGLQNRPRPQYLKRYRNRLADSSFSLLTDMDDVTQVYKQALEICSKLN

Compound | IC50 (PDGFRB (human)) [nM] | kinase still bound, per cent of control (PRKD1 (human); compound 1.0 µM) [%] | kinase still bound, per cent of control (PLK3 (human); compound 1.0 µM) [%] | kinase still bound, per cent of control (MAP2K3 (human); compound 1.0 µM) [%] | kinase still bound, per cent of control (NUAK1 (human) [1]; compound 1.0 µM) [%] | kinase still bound, per cent of control (MINK1 (human); compound 1.0 µM) [%] | kinase still bound, per cent of control (FGR (human); compound 1.0 µM) [%] | kinase still bound, per cent of control (GRK1 (human); compound 1.0 µM) [%] | kinase still bound, per cent of control (PIK3CA (human); compound 1.0 µM) [%] | IC50 (RIPK2 (human)) [nM] | IC50 (MAP3K9 (human)) [nM] | IC50 (MAPK10 (human)) [nM] | IC50 (FLT1 (human)) [nM] | IC50 (MAPK9 (human)) [nM] | further results
Cc1ccc(NC(=O)c2ccc(NC(=O)/C=C/CN(C)C)cc2)cc1Nc1nccc(-c2cccnc2)n1 | – | – | – | – | – | – | – | – | – | – | – | – | – | – | kinase still bound, per cent of control (PRKD1 (human); compound 10.0 µM): 100%; kinase still bound, per cent of control (PLK3 (human); compound 10.0 µM): 46%; kinase still bound, per cent of control (MAP2K3 (human); compound 10.0 µM): 50%; kinase still bound, per cent of control (NUAK1 (human) [1]; compound 10.0 µM): 100%; kinase still bound, per cent of control (MINK1 (human); compound 10.0 µM): 64%; kinase still bound, per cent of control (FGR (human); compound 10.0 µM): 80%; kinase still bound, per cent of control (GRK1 (human); compound 10.0 µM): 100%; kinase still bound, per cent of control (PIK3CA (human); compound 10.0 µM): 100%
Cc1cc(NC(=O)c2cccc(NC(=O)/C=C/CN(C)C)c2)ccc1Nc1nccc(-c2cccnc2)n1 | > 10000 | 100 | 66 | 95 | 100 | 71 | 100 | 100 | 100 | – | – | – | – | – | IC50 (YES1 (human)): 1280 nM; IC50 (PRKX (human)): 7500 nM; IC50 (CSF1R (human)): 287 nM; IC50 (MKNK2 (human)): 238 nM; IC50 (HIPK4 (human)): 8970 nM
CN(C)C/C=C/C(=O)Nc1cccc(C(=O)Nc2ccc(Nc3nccc(-c4c(-c5ccccc5)nn5ccccc45)n3)cc2)c1 | 1030 | 20 | 100 | 58 | 83 | 46 | 10 | 100 | 99 | 42 | 45 | 8.4 | 18 | 23 | IC50 (EPHB4 (human)): 121 nM; IC50 (ERBB4 (human)): 28.9 nM; IC50 (EPHB2 (human)): 138 nM; IC50 (CSNK1E (human)): 82.9 nM; IC50 (CSNK1G2 (human)): 161 nM; IC50 (DDR1 (human)): 56.1 nM
CN(C)C/C=C/C(=O)Nc1cccc(C(=O)Nc2ccc(Nc3nccc(/C(C#N)=C4\Nc5ccccc5S4)n3)cc2)c1 | – | 100 | 59 | 88 | 100 | 100 | 100 | 100 | 64 | – | 104 | 354 | 134 | 490 | IC50 [2]: 970 nM; IC50 (CaMK1 (human)): 900 nM; IC50 (AKT1 (human)): > 370 nM; IC50 (AKT3 (human)): > 370 nM; IC50 (SLK (human)): 884 nM
CN(C)C/C=C/C(=O)Nc1cccc(C(=O)Nc2ccc(Nc3nccc(-c4cccnc4)n3)cc2)c1 | – | 100 | 75 | 41 | 37 | 37 | 69 | 100 | 75 | 729 | – | – | – | – | IC50 (CSNK2A1 (human)): 506 nM; IC50 (JAK2 JH1 JH2 (human)): 2510 nM; IC50 (CLK2 (human)): 299 nM; IC50 (IRAK1 (human) [3]): 175 nM; IC50 (MAPK15 (human)): 183 nM; IC50 (NUAK1 (human) [4]): 144 nM; IC50 (HIPK1 (human) [5]): 7610 nM; IC50 (GCK (human)): 20500 nM; IC50 (IRAK1 (human) [6]): 14.1 nM; IC50 (HIPK1 (human) [7]): 5010 nM
